ChEMBL document CHEMBL1138535, “Comparison of beta-lactam and macrolide combination therapy versus fluoroquinolone monotherapy in hospitalized Veterans Affairs patients with community-acquired pneumonia” (2007)

Columns and labels:
Assay type in all cases: functional
[1] = test system: Homo sapiens; assay: Protection against community-acquired pneumonia in patient with pneumonia severity index-5 assessed as mortality at 500 mg administered once daily for 30 days
[2] = test system: Homo sapiens; assay: Protection against community-acquired pneumonia in patient with pneumonia severity index-4 assessed as mortality at 500 mg administered once daily for 30 days
[3] = test system: Homo sapiens; assay: Protection against community-acquired pneumonia in patient with pneumonia severity index-3 assessed as mortality at 500 mg administered once daily for 30 days
[4] = test system: Homo sapiens; assay: Protection against community-acquired pneumonia in patient with pneumonia severity index-2 assessed as mortality at 500 mg administered once daily for 30 days
[5] = test system: Homo sapiens; assay: Protection against community-acquired pneumonia in patient with pneumonia severity index-2 assessed as mortality at 500 mg administered once daily for 14 days
[6] = test system: Homo sapiens; assay: Protection against community-acquired pneumonia in patient with pneumonia severity index-3 assessed as mortality at 500 mg administered once daily for 14 days
[7] = test system: Homo sapiens; assay: Protection against community-acquired pneumonia in patient with pneumonia severity index-4 assessed as mortality at 500 mg administered once daily for 14 days
[8] = test system: Homo sapiens; assay: Protection against community-acquired pneumonia in patient with pneumonia severity index-5 assessed as mortality at 500 mg administered once daily for 14 days

C[C@H]1COc2c(N3CCN(C)CC3)c(F)cc3c(=O)c(C(=O)O)cn1c23.C[C@H]1COc2c(N3CCN(C)CC3)c(F)cc3c(=O)c(C(=O)O)cn1c23.O [LEVOFLOXACIN]
Activity [1]: 36.6%
Activity [2]: 5%
Activity [3]: 6.3%
Activity [4]: 0%
Activity [5]: 0%
Activity [6]: 2.1%
Activity [7]: 4.2%
Activity [8]: 26.8%
